# Key:
# Assay in all cases: relative viability (nuclei count vs DMSO), 5 days (fraction); higher = more cells survive
# [1] = compound: CCC1=CN=CN=C1N2CCN(CC2)CC3=NC4=C(N3)C=C(C=C4)C(F)(F)F + O=C(c1cc(Cc2n[nH]c(=O)c3ccccc23)ccc1F)N1CCN(C(=O)C2CC2)CC1 [Olaparib] (partner 8 µM)
# Method in brief: (§1)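 Relative viability was taken as the ratio of nuclei in treated wells to nuclei in vehicle wells. Lung cancer cell lines in 1536-well plates received compounds by pin tool one day after seeding, either one drug alone or a fixed anchor-drug dose plus five library-drug doses (not always all listed) in √10 steps. Nuclei were counted on 4× images after 5 days of treatment, and values are medians of duplicate plates.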
# [2] = compound: CCn1c(-c2nonc2N)nc2cnc(Oc3cccc(NC(=O)c4ccc(OCCN5CCOCC5)cc4)c3)cc21 + Cc1nc(Nc2ncc(C(=O)Nc3c(C)cccc3Cl)s2)cc(N2CCN(CCO)CC2)n1 [Dasatinib] (partner 0.075 µM)
# Method in brief: as §1
# [3] = compound: CCn1c(-c2nonc2N)nc2cnc(Oc3cccc(NC(=O)c4ccc(OCCN5CCOCC5)cc4)c3)cc21 + CS(=O)(=O)N1CCN(Cc2cc3nc(-c4cccc5[nH]ncc45)nc(N4CCOCC4)c3s2)CC1 [Pictilisib] (partner 1 µM)
# Method in brief: as §1
# [4] = compound: CCn1c(-c2nonc2N)nc2cnc(Oc3cccc(NC(=O)c4ccc(OCCN5CCOCC5)cc4)c3)cc21 + NC(=O)Nc1cc(-c2cccc(F)c2)sc1C(=O)N[C@H]1CCCNC1 [AZD7762] (partner 0.2 µM)
# Method in brief: as §1
Cell Line,relative viability ([1]; first compound 0.04 µM),relative viability ([1]; first compound 0.1265 µM),relative viability ([1]; first compound 0.4 µM),relative viability ([1]; first compound 1.265 µM),relative viability ([1]; first compound 4 µM),relative viability ([2]; first compound 0.04 µM),relative viability ([2]; first compound 0.1265 µM),relative viability ([2]; first compound 0.4 µM),relative viability ([2]; first compound 1.265 µM),relative viability ([2]; first compound 4 µM),relative viability ([3]; first compound 0.04 µM),relative viability ([3]; first compound 0.1265 µM),relative viability ([3]; first compound 1.265 µM),relative viability ([3]; first compound 4 µM),relative viability ([4]; first compound 0.04 µM),relative viability ([4]; first compound 0.1265 µM),relative viability ([4]; first compound 4 µM),relative viability ([3]; first compound 0.4 µM),relative viability ([4]; first compound 0.4 µM),relative viability ([4]; first compound 1.265 µM)
LCLC-97TM1,0.425,0.418,0.335,0.329,0.278,0.969,0.929,0.673,0.99,0.811,0.261,0.363,0.351,0.236,0.273,0.425,0.135,,,
LCLC-103H,0.798,0.733,0.743,0.718,0.707,0.532,0.37,0.134,0.227,0.178,0.764,0.596,0.455,0.576,0.837,0.743,0.404,0.435,0.422,0.397
LK-2,0.817,0.675,0.603,0.517,0.712,0.39,0.493,0.208,0.178,0.252,0.711,0.777,0.255,0.392,0.525,0.583,0.284,0.615,0.156,0.113
LOU-NH91,0.892,0.951,0.898,0.896,0.94,0.524,0.454,0.312,0.273,0.304,0.61,0.613,0.475,0.495,0.782,0.631,0.424,0.484,0.421,0.432
LU99A,0.308,0.282,0.276,0.28,0.301,0.573,0.467,0.352,0.367,0.388,0.392,0.322,0.317,0.214,0.439,0.436,0.252,0.192,0.241,0.296
LXF-289,1.08,1.01,1.05,1.02,0.933,0.158,0.111,0.0564,0.0848,0.0678,0.923,0.761,0.56,0.516,1.19,1.23,0.224,0.539,0.638,0.506
NCI-H23,0.353,0.4,0.29,0.345,0.243,0.927,0.758,0.294,0.611,0.543,0.721,0.613,0.433,0.343,0.453,0.277,0.151,,0.229,0.115
NCI-H322M,0.792,0.811,0.725,0.672,0.85,0.255,0.216,0.231,0.274,0.259,0.579,0.541,0.693,0.591,0.587,0.556,0.445,0.581,0.561,0.496
NCI-H358,0.659,0.607,0.542,0.62,0.548,0.162,0.195,0.169,0.219,0.141,0.339,0.401,0.384,0.216,0.517,0.56,0.337,0.316,0.329,0.293
NCI-H441,0.459,0.543,0.543,0.458,0.529,0.635,0.683,,0.685,0.549,0.582,0.541,0.386,0.376,1.34,1.05,0.698,0.438,1.21,0.961
NCI-H460,0.521,0.423,0.404,0.368,0.399,0.467,0.288,0.154,0.136,0.112,0.462,0.404,0.122,0.182,0.712,0.465,0.0732,0.207,0.148,0.0565
NCI-H596,0.737,0.64,0.575,0.649,0.747,0.682,0.611,0.495,0.469,0.546,0.399,0.416,0.359,0.389,1.23,0.926,0.9,0.37,0.941,0.762
NCI-H647,0.458,0.528,0.452,0.519,0.408,0.145,0.0946,0.0784,0.122,0.0956,0.614,0.307,0.207,0.276,0.523,0.242,0.121,0.249,0.249,0.193
NCI-H650,0.386,0.373,0.393,0.331,0.347,0.4,0.317,0.216,0.248,0.276,1.09,0.809,0.484,0.542,1.15,0.871,0.354,0.594,0.46,0.263
NCI-H727,0.73,0.593,0.719,0.61,0.641,0.507,0.621,0.405,0.467,0.521,0.613,0.741,0.487,0.345,,0.699,0.739,0.604,0.539,0.566
NCI-H838,0.816,0.752,0.737,0.712,0.74,0.314,0.192,0.199,0.208,0.183,0.397,0.292,0.286,0.256,0.946,0.725,0.691,0.231,0.669,0.635
